Earlier results on two compounds are cited in paper PMC2857392 (Biochemistry, 2010).

Usually Kd stands for the free concentration of one partner at which half of the binding sites on the other are occupied at equilibrium, for simple one-to-one binding.

The target of one series is Stx1 B-subunit (Stx1B). The following applies: read-out: dissociation constant (Kd) for B-subunit monomer.

In the case of `OC[C@H]1O[C@H](O[C@@H]2[C@H](O)[C@@H](O)[C@H](O[C@H]3[C@H](O)[C@@H](O)C(O)O[C@@H]3CO)O[C@@H]2CO)[C@H](O)[C@@H](O)[C@H]1O` (stereo partly drawn) [Pk trisaccharide, Galα1-4Galβ1-4Glc], the Kd at Stx1 B-subunit (Stx1B) was 500 to 1000 µM; at Stx1B, 4800 µM.
For globotriaosylceramide [Gb3], the dissociation constant (Kd) at Stx1B was 0.003 µM.
